Source: patent publication US20210085582A1, “SYNERGISTIC ANTIOXIDANT ACID COMPOUND ASSOCIATIONS” (L'OREAL, priority 2019, published 2021)

Assay: oxygen radical absorbance capacity (ORAC) assay, antioxidant (AOX) strength testing
Settings: 0.5% ferulic acid, 0.5% salicylic acid
Description: The peroxyl radical, generated from the thermal decomposition of 2,2'-azobis-2-methyl-propanimidamide dihydrochloride (AAPH), will quench a fluorescent probe by a hydrogen atom transfer reaction. In the presence of an antioxidant, however, the molecule will initially block or prevent the quenching of the probe, causing a delay in the fluorescence decay profile. The area under the fluorescence decay curves for samples with and without the presence of an antioxidant are compared to that of a standard reference material and the peroxyl radical antioxidant capacity is determined. References disclosing ORAC assays include Cao G, Alessio H, Cutler R (1993). “Oxygen-radical absorbance capacity assay for antioxidants”. Free Radic Biol Med 14 (3): 303-11; Ou B, Hampsch-Woodill M, Prior R (2001). “Development and validation of an improved oxygen radical absorbance capacity assay using fluorescein as the fluorescent probe”. J Agric Food Chem 49 (10): 4619-26; Huang D, Ou B, Prior R (2005). “The chemistry behind antioxidant capacity assays”. J. Agric. Food Chem. 53 (6): 1841-56; and Garrett A R, Murray B K, Robison […] (2010). “Measuring antioxidant capacity using the ORAC and TOSC assays”. Advanced Protocols in Oxidative Stress II: Methods in Molecular Biology (series), Donald J Armstrong (ed) 594: 251-62.

Which “contribution to antioxidant potential of the association” value (Zinc PCA 0.5% added to compositions with 15% ascorbic acid) does the source give for `O=C1CC[C@@H](C(=O)[O-])N1.O=C1CC[C@@H](C(=O)[O-])N1.[Zn+2]` [Zinc PCA] here?
The value was “not found to be a contributing factor”.

Which results are given for `O=C(O)c1cc(O)c(O)c(O)c1` [gallic acid, 3,4,5-trihydroxybenzoic acid]?
effect on overall antioxidant capacity of the association (1% gallic acid added to 15% ascorbic acid): modest; effect on overall antioxidant capacity of the association (5% gallic acid added to 15% ascorbic acid): significant
